Measured values: paper PMC5995442, “Drug discovery with an RBM20 dependent titin splice reporter identifies cardenolides as lead structures to improve cardiac filling” (PLoS ONE, 2018)
Entries after “also recorded” stand apart in the source; their conditions may differ. Where two headings read alike, the source gives them in different places. Residues, ends and D or L forms follow the SMILES beside them. *: point of attachment. Cbz = O=C(OCc1ccccc1)*

What was measured:
[1] = test system: RBM20 dependent titin PEVK4-13 splicing reporter; assay: Dual luciferase splicing reporter assay (DLR assay), RBM20 co-transfected; format: cell-based, human; conditions: for IC50: Homo sapiens
From the text: The objective of our study was to identify and evaluate small molecules with the potential to modulate alternative splicing via an unbiased chemical high-throughput screening approach. Using transient transfection of a dual luciferase splicing reporter assay (DLR-assay) in HEK293.EBNA cells and a RBM20 expression construct, we investigated >34.000 substances for their effect on alternative exon exclusion from our RBM20 dependent titin PEVK4-13 splicing reporter. For the primary screen (pilot screen), each compound was tested at 10 μM (single point) and compared to an untreated control. Positive hits leading to differential exon usage (exceeding three standard deviations) were picked for independent validation in 9 serial 2-fold dilutions starting at 20 μM. Compounds that produced a concentration dependent effect were validated manually in the 96-well format and cytotoxicity was evaluated. To minimize the detection of false positives, we excluded compounds with structural homology to each luciferase’s natural substrate. To determine the EC50 of candidates we calculated dose response curves using a non-linear least-squares fitting routine available within the GNUPLOT package (accessible online: http://ic50.tk/index.html). […] Compounds that produced a concentration depend effect in the DLR-assay and altered the alternative transcript levels were regarded as validated alternative splicing modulators.
(§1) Cells transfected were at a confluency of 50-60%.
5000 HEK293.EBNA cells were seeded in clear bottom, white 384-well plates (Corning by Sigma-Aldrich Chemie GmbH, Munich, Germany) using an automated cell dispenser (Biotek, Bad Friedrichshall, Germany). 24 h after cell seeding the expression plasmids were delivered using a Freedom EVO® robotic workstation (TECAN, Maennedorf, Switzerland) equipped with a MultiChannel Arm™. Cells were transiently transfected with 45 ng plasmid DNA ([…] and 40 ng RBM20 or 24 ng of the negative control pcDNA3.1 ad 45 ng with bacterial expression plasmid pBSSK). Compounds were added to the plates the following day using the same robotic platform. Luciferase activity was determined using Dual-Glo® Luciferase Assay System (Promega GmbH, Mannheim, Germany) on an Infinite® M1000 Pro (TECAN, Maennedorf, Switzerland) plate reader around 60 hours post-transfection. Assay robustness was evaluated by calculation z’ scores using an online tool provided by the Screening Unit at FMP Berlin (http://www.screeningunit-fmp.net/tools/z-prime.php).

HEK293.EBNA cells = assay: Cell viability, resazurin based staining (PrestoBlue); design: species or system human; conditions: for IC50: Homo sapiens, HEK293-EBNA, HEK293 cells, 60 h post-transfection, RBM20/titin reporter transfected, read-out: Viability IC50
From the text: as §1

[2] = molecular target: human serum albumin (HSA) (Homo sapiens, UniProt P02768); assay: Surface plasmon resonance, immobilized human serum albumin (positive control); format: binding; conditions: SPR, increasing concentrations
Chain of human serum albumin (HSA) (P02768 25-609): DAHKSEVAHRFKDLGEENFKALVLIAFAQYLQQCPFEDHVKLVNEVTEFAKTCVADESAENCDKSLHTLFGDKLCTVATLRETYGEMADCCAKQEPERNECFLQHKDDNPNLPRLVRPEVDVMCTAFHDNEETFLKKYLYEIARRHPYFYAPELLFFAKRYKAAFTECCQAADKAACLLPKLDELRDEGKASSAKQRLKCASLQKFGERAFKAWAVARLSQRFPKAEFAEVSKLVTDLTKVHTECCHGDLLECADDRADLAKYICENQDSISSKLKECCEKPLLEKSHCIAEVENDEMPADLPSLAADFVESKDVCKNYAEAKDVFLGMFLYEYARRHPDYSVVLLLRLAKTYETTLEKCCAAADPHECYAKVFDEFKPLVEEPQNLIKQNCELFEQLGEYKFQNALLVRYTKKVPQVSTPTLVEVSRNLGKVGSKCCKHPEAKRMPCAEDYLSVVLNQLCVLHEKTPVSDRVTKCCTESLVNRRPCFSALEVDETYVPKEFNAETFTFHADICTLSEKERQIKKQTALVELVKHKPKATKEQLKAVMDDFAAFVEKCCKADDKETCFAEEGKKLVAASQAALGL

[3] = molecular target: T1, RNA recognition motif (RRM) of RBM20 (Homo sapiens, UniProt Q5T481); assay: Surface plasmon resonance, immobilized RBM20-RRM; format: binding; conditions: SPR, increasing concentrations
T1 construct: The RRM domain of RBM20 was cloned into pGEX-6P-1 bacterial expression plasmid; GST (N); made in house; host or cells: E. coli Rosetta 2 (DE3)
T1 sequence (Q5T481 518-593 limits assumed): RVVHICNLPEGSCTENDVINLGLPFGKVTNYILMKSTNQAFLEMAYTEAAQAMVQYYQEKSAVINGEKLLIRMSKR
Protocol: The RRM domain of RBM20 was cloned into pGEX-6P-1 bacterial expression plasmid and expressed in E. coli Rosetta™ 2 (DE3) (Novagen by Merck KgaA, Darmstadt, Germany). After purification of the recombinant protein using glutathione-sepharose (Sigma-Aldrich Chemie GmbH, Munich, Germany) the purified fraction was dialyzed o/n in reaction buffer (20 mM HEPES pH7, 200 mM NaCl, 1 mM MgCl2, 10% glycerol). The surface plasmon resonance study (SPR) was performed on a Biacore T100 (GE Healthcare Europe GmbH, Freiburg, Germany) using amine coupling. Chip surface was activated with 0.2 M EDC/0.4 M NHS. 30 μg of human serum albumin (HSA) (positive control) or RBM20-RRM were linked to the activated chip surface at pH 4.5 in 10 mM sodium acetate.

[4] = molecular target: Na+/K+ ATPase human erythrocytes; design: method as in PMID 11072868; conditions: cited from earlier work
[5] = test system: HEK293 cells gene expression; assay: Expression profiling of digitoxin treated HEK293 cells (GSE36058); format: cell-based, human; conditions: digitoxin treated HEK293, GEO dataset GSE36058
Protocol: Expression profiling data (Gene Expression Omnibus—GSE36058) was analyzed using AltAnalyze [16]—gene expression cut-off = 1.0.

RBM20 protein levels = assay: RBM20 protein expression by immunoblot in co-transfected HEK293 cells; format: cell-based, human; conditions: proteasome inhibitor added to digoxin treated HEK293 cells
Protocol: For immunodetection, HEK293.EBNA samples were harvested by rinsing them of the cell culture substrate using PBS at 37°C and subsequently used for downstream processing or snap frozen in liquid nitrogen. For protein extraction samples were suspended in RIPA buffer (50 mM Tris pH 8.0, 150 mM NaCl, 1% NP-40, 0.25% sodium deoxycholate, 1.0 mM EDTA; 0.1% SDS) and lysed via sonication with 20 bursts at 70% energy using a VialTweeter (Hielscher Ultrasonics GmbH, Teltow, Germany). Protein concentration was estimated after 20’ precipitation of cell debris at 13,000xg for 20 min at 4°C using BCA assay (Life Technologies GmbH, Darmstadt, Germany [23225]). Samples were kept cool at any time. Lysates were separated by SDS-PAGE [14] and blotted on PVDF membranes. Blotted antigens were probed with mouse anti-c-myc 9E10 ([M5546], Sigma-Aldrich Chemie GmbH, Munich, Germany) tag antibody at 1:2000 and detected using a sheep anti-mouse IgG-HRP (GE Healthcare Europe GmbH, Freiburg, Germany [NA9310V]) conjugate 1:5000 follow by visualization with AceGlow™ (VWR PEQL37) on a FUSION FX7 CCD camera system (Vilber Lourmat Deutschland GmbH, Eberhardzell, Germany).

[6] = test system: titin minigene TTN Ex241-43 transcripts; assay: RT-PCR / RT-qPCR of transcripts from titin minigene TTN Ex241-43 (I96-98); format: cell-based, human; conditions: HEK293 transfected with RBM20 and minigene I96-98
From the text: The objective of our study was to identify and evaluate small molecules with the potential to modulate alternative splicing via an unbiased chemical high-throughput screening approach. Using transient transfection of a dual luciferase splicing reporter assay (DLR-assay) in HEK293.EBNA cells and a RBM20 expression construct, we investigated >34.000 substances for their effect on alternative exon exclusion from our RBM20 dependent titin PEVK4-13 splicing reporter. For the primary screen (pilot screen), each compound was tested at 10 μM (single point) and compared to an untreated control. Positive hits leading to differential exon usage (exceeding three standard deviations) were picked for independent validation in 9 serial 2-fold dilutions starting at 20 μM. Compounds that produced a concentration dependent effect were validated manually in the 96-well format and cytotoxicity was evaluated. To minimize the detection of false positives, we excluded compounds with structural homology to each luciferase’s natural substrate. To determine the EC50 of candidates we calculated dose response curves using a non-linear least-squares fitting routine available within the GNUPLOT package (accessible online: http://ic50.tk/index.html). We evaluated the effect on splice activity on the RNA level by RT-qPCR of isoforms generated from a titin minigene containing TTN Ex241-43 (corresponding to TTN I-band exon I96-98) in the presence of the potential splice modulators. […]
Total RNA from HEK293.EBNA cells was extracted using RNeasy Micro Kit (Qiagen, Hilden, Germany) according to the manufacturer’s instructions. […] Quantitative RT-PCR was performed using SYBRGreen master mix (Applied Biosystems by Thermo Fisher Scientific Inc., USA) on a 7900 HT RT-cycler (Applied Biosystems by Thermo Fisher Scientific, Inc., USA). […] To quantification gene expression, we used the ΔΔCT method normalized to 18S or to the alternative transcripts generated from the splicing reporter. PSI values were calculated as ratio of unspliced and spliced reporter transcript. […]

[7] = FLuc/RLuc ratio, HEK293 cells, 96-well format, inset table of figure, read-out: Splicing IC50
[8] = dose response fit, head prints [μM], fits IC50 only
[9] = HEK293, Table 1, read-out: IC50 Splicing HEK293 cells

## Cymarol
[1]; DLR assay, HEK293
  effect on RBM20-mediated titin splicing (in words): independently validated
[1]; DLR assay, N = 4
  concentration at which effect on titin splicing starts: < 100 nM

## C[C@]12CC[C@H](O)C[C@H]1CC[C@@H]1[C@@H]2CC[C@]2(C)[C@@H](C3=CC(=O)OC3)CC[C@]12O [Digitoxigenin]
HEK293.EBNA cells
  IC50: 468 ± 26.9 nM
[2]
  binding to human serum albumin (HSA): strongly bind
[3]
  binding to RNA recognition motif (RRM) of RBM20: not the RNA recognition motif (RRM) of RBM20
[1]; HEK293, read-out: Splicing IC50
  IC50: 417 ± 99.5 nM

## C[C@]12CC[C@H]3[C@@H](CC[C@]4(O)C[C@@H](O)CC[C@]34CO)[C@@]1(O)CC[C@@H]2C1=CC(=O)OC1 [Strophanthidol]
HEK293.EBNA cells
  IC50: 3070 ± 634 nM
[1]; [7]
  IC50: 3840 ± 443 nM

## CO[C@H]1C[C@H](O[C@H]2CC[C@@]3(C)[C@H](CC[C@@H]4[C@@H]3CC[C@]3(C)[C@@H](C5=CC(=O)OC5)[C@@H](OC(C)=O)C[C@]43O)C2)O[C@@H](C)[C@@H]1O [Oleandrin]
HEK293.EBNA cells
  IC50: 30.5 ± 1.2 nM
[1]; DLR assay HEK293, read-out: splicing IC50
  IC50: 20 nM

## C[C@H]1O[C@@H](O[C@H]2[C@@H](O)C[C@H](O[C@H]3[C@@H](O)C[C@H](O[C@H]4CC[C@@]5(C)[C@H](CC[C@@H]6[C@@H]5CC[C@]5(C)[C@@H](C7=CC(=O)OC7)CC[C@]65O)C4)O[C@@H]3C)O[C@@H]2C)C[C@H](O)[C@@H]1O [Digitoxin]
HEK293.EBNA cells
  IC50: 66.3 ± 5.5 nM
HEK293.EBNA cells; [8]
  Viability Hill Coeff.: 2.0260 ± 0.2941
HEK293.EBNA cells; fit maximum of relative viability, head prints [μM], fits IC50 only
  Viability Max: 1.0033 ± 0.0211
[4]
  IC50: 0.25 nM
[2]
  binding to human serum albumin (HSA): strongly bind
[5]
  proteins associated with RBM20 dependent splicing down regulated (of 39): 10
  proteins associated with RBM20 dependent splicing upregulated (of 39): 8
[3]
  binding to RNA recognition motif (RRM) of RBM20: not the RNA recognition motif (RRM) of RBM20
[1]; DLR assay, HEK293
  effect on RBM20-mediated titin splicing (in words): efficiently inhibit RBM20 mediated splicing
[1]; [9]
  IC50: 56 nM
[1]; [8]
  Splicing Hill Coeff.: 2.3582 ± 1.3110

## CC(=O)O[C@H]1CC[C@@]2(C)[C@H](CC[C@@H]3[C@@H]2CC[C@]2(C)[C@@H](C4=CC(=O)OC4)CC[C@]32O)C1 [Digitoxigenin-3-acetate, Digitoxigenin 3-acetate]
[1]; DLR assay, HEK293
  effect on RBM20-mediated titin splicing (in words): independently validated

## CC(C)C[C@@H](C=O)NC(=O)[C@H](CC(C)C)NC(=O)[C@H](CC(C)C)NC(=O)OCc1ccccc1 [MG132] (Cbz-Leu-Leu-Leu-aldehyde)
RBM20 protein levels
  rescue of RBM20 protein expression under digoxin: did not rescue RBM20 protein expression

## C[C@]12CC[C@H](O)C[C@H]1CC[C@@H]1[C@@H]2CC[C@]2(C)[C@@H](C3=CC(=O)OC3)[C@@H](O)C[C@]12O [Gitoxigenin]
[1]; DLR assay, HEK293
  effect on RBM20-mediated titin splicing (in words): independently validated

## COc1ccc(-c2cc(=O)c3c(O)cc(O)c(-c4cc(-c5cc(=O)c6c(O)cc(O)cc6o5)ccc4OC)c3o2)cc1 [Isoginkgetin]
[6]
  intron retention / mRNA maturation (in words): reduces alternative splicing and mRNA maturation; also recorded: affects mRNA maturation with increasing concentration
HEK293.EBNA cells
  IC50: 10800 ± 13100 nM
[1]; [7]
  IC50: 178000 nM
[1]; only at the highest toxic dose
  dose at which an effect on RBM20 dependent splicing and general mRNA maturation was found: 30 µM

## C[C@@H]1O[C@@H](O[C@H]2C[C@@H](O)[C@]3(CO)[C@H]4[C@H](O)C[C@]5(C)[C@@H](C6=CC(=O)OC6)CC[C@]5(O)[C@@H]4CC[C@]3(O)C2)[C@H](O)[C@H](O)[C@H]1O [Ouabain]
[4]
  IC50: 0.56 nM
[1]; DLR assay, HEK293
  effect on RBM20-mediated titin splicing (in words): suppresses RBM20 mediated titin splicing
[1]; [9]
  IC50: 1670 nM

## C[C@]12CCC(=O)C=C1CC[C@@H]1[C@@H]2[C@@H](O)C[C@@]2(C)[C@H]1CC[C@]2(O)C(=O)CO [Hydrocortisone]
[1]; DLR assay, HEK293
  effect on RBM20-mediated titin splicing (in words): did not interfere with splicing; also recorded: does not interfere with splicing activity; also recorded: do not interfere with RBM20 dependent splicing
